The record followed here is patent US6495577B2, “Pesticidal composition” (Aventis CropScience GmbH, priority 2000, dated 2002).

The mortality is the percentage killed.

The experiment relates to Trialeurodes vaporariorum. As to the kind of experiment: Mortality of whitefly nymphs on sprayed French bean plants (greenhouse). The format is in vivo. The conditions noted are these: 240 h, 10 days after application. An excerpt:
The invention is illustrated in the following Example which describe experiments in which a synergistic effect was observed. The desired concentration of the active ingredients was achieved by diluting, with water, the commercially available 25% by volume emulsifiable concentrate of deltamethrin and 20% by weight water soluble powder of acetamiprid, each of which contained conventional surfactants.
Two plants of two week old French beans (Phaseolus vulgaris) were infested with adult whitefly (Trialeurodes vaporariorum) for oviposition in a closed chamber. After 48 hours, the adults were blown off the plants so that only the eggs stayed at the surface of the leaves. The plants were placed in a greenhouse for 7 days to complete the development of the eggs to the larval stage L 1/2. The plants were then sprayed with the individual compounds and mixtures of the two, by hand with a spray gun, until complete coverage of the plant surfaces with the spray liquid was obtained. The plants were then placed in the greenhouse for a further 10 days. Two replicates of each test was carried. The mortality of the nymphs of Trialeurodes vaporadorum was estimated 10 days after application and the average of the two replicates calculated.
To indicate the existence of synergism between the active components, the results were treated in the manner described by Colby S. R., “Calculating Synergistic and Antagonistic Responses of Herbicide Combinations,” Weeds, 1967, 15, 20-22. In this method, the “expected” percent control, E, of the combination is given by the equation: [formula]
The LC50 in ppm of the mixtures was calculated and compared with the expected LC50 from the expected mortalities according to Colby.

Take `C/C(=N\C#N)N(C)Cc1ccc(Cl)nc1` [acetamiprid, E-N^1-[(6-chloro-3-pyridylmethyl)]-N^2-cyano-N^1-methylacetamidine]: the mortality at 0.1 ppm (acetamiprid 0,1 ppm alone) was 1.25%. In addition, under “acetamiprid 0,03 ppm alone”, the mortality at 0.03 ppm amounted to 0%. The mortality at 0.3 ppm (acetamiprid 0,3 ppm alone) stood at 7.5%. The mortality at 1 ppm (acetamiprid 1 ppm alone) amounted to 23.8%. The mortality at 3 ppm (acetamiprid 3 ppm alone) is 56.2%.
With `CC1(C)[C@H](C(=O)O[C@H](C#N)c2cccc(Oc3ccccc3)c2)[C@@H]1C=C(Br)Br` [deltamethrin, (S)-α-cyano-3-phenoxybenzyl (1R,3R)-3-(2,2-dibromvinyl)-2,2-dimethylcyclopropanecarboxylate], under “deltamethrin 0,01 ppm alone”, the mortality at 0.01 ppm came out at 0.75%. Besides, the mortality at 0.1 ppm (deltamethrin 0,1 ppm alone) stood at 25%. Moreover, for the setting “deltamethrin 0,02 ppm alone”, the mortality at 0.02 ppm was 2.5%. In addition, the mortality at 0.2 ppm (deltamethrin 0,2 ppm alone) was found to be 36.2%. For the same compound, the mortality at 0.06 ppm (deltamethrin 0,06 ppm alone) amounted to 15%. Besides, the mortality at 0.6 ppm (deltamethrin 0,6 ppm alone) was 47.5%. Where the note is “deltamethrin 0,33 ppm alone”, the mortality at 0.33 ppm came out at 47.5%. Besides, the mortality at 1 ppm (deltamethrin 1 ppm alone) came out at 73.8%. The mortality at 0.006 ppm (deltamethrin 0,006 ppm alone) was 0%. Where the note is “deltamethrin 0,033 ppm alone”, the mortality at 0.033 ppm turned out to be 8.75%.
